The values that follow come from US8207203B2, “Pyridylisoxazole derivatives” (Aska Pharmaceutical Co., Ltd., priority 2006, dated 2012).

Data set [1] can be described thus: Measurement of the compounds' metabolic rate (human liver S9, LC/MS/MS). The class given is in vitro ADME. The conditions noted are these: human liver S9 0.5 mg protein/mL, compound 1 μmol/L, NADPH generating system, pH7.4, 37° C. The method, then:
(2) Measurement of the Compounds' Metabolic Rate:
Each test compound was added to potassium phosphate buffer (50 mmol/L, pH7.4) containing NADPH generating system (comprising 3.3 mmol/L MgCl2, 3.3 mmol/L glucose 6-phosphate, 1.3 mmol/L β-NADP^+ and 0.4 unit/mL glucose 6-phosphate dehydrogenase) (in which occasion the final concentration was rendered 1 μmol/L) and incubated at 37° C. for 2 minutes. After the incubation, a suspension of human liver S9 (the supernatant fraction obtained by centrifuging comminuted human liver cell fluid at 9000×g) in potassium phosphate buffer was added to the system, to the final concentration of 0.5 mg protein/mL. This reaction mixture was incubated at 37° C. for 5 minutes, and to which 4 volume times the reaction mixture of acetonitrile was added, mixed, cooled with ice and centrifuged (2000×g, 10 minutes). A part of the supernatant was taken and analyzed by LC/MS/MS, to determine the remaining rate of unchanged substance in the reaction solution. The results are shown in the following Table A, concurrently with the measured results of TNF-α production-inhibiting action in (1) above.

For the next data set, the system named is TNF-α production. Briefly: Measurement of TNF-α production-inhibiting action (LPS-stimulated THP-1 cells, ELISA). Type of data set: cell-based. The settings on record: Homo sapiens; test substance 100 nM; THP-1 cells with LPS, 2 hours' culture; TNF-α in supernatant by ELISA; read-out: TNF-α generation-inhibiting action (inhibition: rate: %, 100 nM). On the procedure: (1) Measurement of TNF-α Production-Inhibiting Action
THP-1, human-derived culture cells (purchased from Dainippon Pharmaceutical Co.), was suspended (1×10^5 cells/mL) in RPMI 1640 medium (10% fetal bovine serum, containing 100 units/mL of penicillin). The THP-1 cell suspension 1.6 mL was inoculated in a 24-well culture plate, to which further a solution of test substance as dissolved in RPMI 1640 medium to make the final concentration of the test substance 100 nM and 0.2 mL of LPS (E. coli 055: B5-derived, dissolved in RPMI 1640 medium, Difco) of 10 μg/mL in concentration were added, followed by 2 hours' culture under the conditions of 37° C. and 5% CO2. The supernatant which was obtained upon centrifuge (500×g, 5 minutes) was measured with ELISA (Amersham Biosciences, TNF-α Human, ELISA Biotrak System) to quantize TNF-α. The TNF-α production inhibition rate (%) at 100 nM of each test substance was calculated according to the following formula, […]
In general terms: In an ELISA, binding on a coated surface is turned into a signal by an enzyme label.

For the compound `Cc1cccc(-c2noc(NC(=O)CCc3ccccc3)c2-c2ccncc2)c1` [Example 103, 3-(3-Methylphenyl)-5-(3-phenylpropionylamino)-4-(4-pyridyl)-isoxazole], in data set [1], the “percent of unchanged compound remaining after 5 min” value is 17.6%. Moreover, the inhibition at 0.1 µM in the data set with TNF-α production was found to be 65.5%.

For the compound `Cc1cccc(-c2noc(NC(=O)CCc3ccccc3C)c2-c2ccncc2)c1` [Example 106, 3-(3-Methylphenyl)-5-[(2-methylphenyl)propionylamino]-4-(4-pyridyl)isoxazole], in data set [1], the “percent of unchanged compound remaining after 5 min” value is given as 23.3%. Moreover, the inhibition at 0.1 µM in the data set with TNF-α production is 52.9%.

With `Cc1ccc(F)c(-c2noc(NC(=O)CCc3cccc(Cl)c3)c2-c2ccncc2)c1` [Example 117, 5-[(3-Chlorophenyl)propionylamino]-3-(2-fluoro-5-methylphenyl)-4-(4-pyridyl)isoxazole], the “percent of unchanged compound remaining after 5 min” value in data set [1] is 50.5%. For the same compound, the inhibition at 0.1 µM in the data set on TNF-α production is 58.1%.

With `Cc1cc(-c2noc(NC(=O)Cc3ccccc3)c2-c2ccncc2)ccc1F` [Example 123, 3-(4-Fluoro-3-methylphenyl)-5-(phenylacetylamino)-4-(4-pyridyl)-isoxazole], in data set [1], the “percent of unchanged compound remaining after 5 min” value is 58.0%. Moreover, in the data set with TNF-α production, the inhibition at 0.1 µM is 78.1%.

Regarding `Cc1cc(-c2noc(NC(=O)Cc3ccccc3Cl)c2-c2ccncc2)ccc1F` [Example 124, 5-[(2-Chlorophenyl)acetylamino]-3-(4-fluoro-3-methylphenyl)-4-(4-pyridyl)isoxazole], the “percent of unchanged compound remaining after 5 min” value in data set [1] is listed as 59.7%. For the same compound, the inhibition at 0.1 µM in the data set with TNF-α production is 85.2%.

Turning to `Cc1cc(-c2noc(NC(=O)CCc3ccccc3)c2-c2ccncc2)ccc1F` [Example 125, 3-(4-Fluoro-3-methylphenyl)-5-(3-phenylpropionylamino)-4-(4-pyridyl)isoxazole], in data set [1], the “percent of unchanged compound remaining after 5 min” value is given as 20.1%. Further, in the data set with TNF-α production, the inhibition at 0.1 µM is 66%.
